Key:
[1] = tested on: Cl^− secretion; test: Short-circuit current (Isc) measurement with Ussing chambers, large-intestinal (cecum) mucosa specimen; type: cell-based, mouse
From the text: A mouse was killed by cervical vertebra dislocation. After abdominal incision, the cecum was extracted. The boundary parts of the cecum with the small intestine and the large intestine were cut to extract the cecum. The cecum was cut open with scissors into a sheet. In order to completely remove the contents, the cecum was pinched with tweezers and washed with replacement fluid. Replacement fluid was placed in a petri dish covered with rubber, and the cecum was attached thereon with the serosa side up. The muscular layer was separated using tweezers while constantly aerating the replacement fluid in the petri dish with 95% O2/5% CO2 to prepare a specimen composed of the mucosa and the submucosa. This specimen was divided into four pieces for use in the experiment.
The mucosa specimen was placed between two Ussing-type chambers each having a window with an area of 0.2 cm^2 and containing 5 mL of replacement fluid. For the measurement of the electrical potential difference, a pair of calomel electrodes was connected to both chambers through 1 M KCl/2% agar salt bridges. For energization, Ag/AgCl electrodes connected through 1 M NaCl/2% agar salt bridges were installed. These electrodes were connected to a voltage clamp apparatus, and the short-circuit current (Isc) was measured. As for Isc, current flowing from the mucosa side to the serosa side was determined as being positive.
Tetrodotoxin (TTX) was administered to the serosa side to block the nerve, and then forskolin (FK) was administered to the serosa side. […] At least part of this cAMP-dependent increase in Isc is attributable to the activation of a Cl^− secretion mechanism.
Subsequently, the compound 1 was administered to the serosa side to decrease Isc (to suppress Cl^− secretion). […] Lastly, a Na^+.K^−.2Cl cotransporter inhibitor (which inhibits Cl^− secretion) was administered to the serosa side to observe a slight decrease in Isc.

[2] = tested on: gastric acid secretion; test: Gastric acid secretion measurement with Ussing chambers, stomach specimen stimulated with histamine; type: cell-based, mouse; conditions: for suppression of the gastric acid secretion rate: versus ground state; for Gastric acid secretion rate: histamine 1 mM on serosa side, 37° C.
Method: A mouse was killed by cervical vertebra dislocation. After abdominal incision, the stomach was extracted. The gastric acid secretion portion was cut out, washed with replacement fluid, and divided into two pieces.
The specimen was placed between two chambers facing each other and each having a window with an area of 0.2 cm^2 and containing 10 mL of replacement fluid. Decreases in pH of the replacement fluid in the chamber on the lumen side were successively measured using a pH electrode at 37° C. The gastric acid secretion rate was calculated from the decrease in pH measured after completion of the experiment and the previously measured buffer capacity of the replacement fluid. The experiment was conducted by previously administering histamine (1 mM) to the replacement fluid on the serosa side for stimulating gastric acid secretion.
L-Menthol and compound 1 were administered to the replacement fluid on the lumen side so that the final concentrations were 50 μM and 100 μM, respectively. The administration was performed using stock solutions each having a concentration of 1000 times that of the target final concentration and using DMSO as a solvent. Compound 1 and 1-menthol were administered at 20 minutes and at 14 minutes, respectively, from the start of the experiment.

SMILES: CCS(=O)(=O)N(C)[C@H]1c2cc(C#N)ccc2OC(C)(C)[C@@H]1O (racemic) [chromanol 293B]
- Isc-suppressing reaction ([1]; chromanol 293B administered first, before compound 1 (Example 2, FIG. 4)): can be observed

SMILES: CC1CCC(C(C)C)C(OCC(C)(O)CO)C1 (stereo not shown) [Compound 1, 2-methyl-3-(menthoxy)propane-1,2-diol]
- change in Isc (Cl^− secretion) ([1]; administered to serosa side after TTX and forskolin (Example 1, FIG. 3)): decrease Isc
- suppression of the gastric acid secretion rate ([2]; 100 μM): 75%
- Gastric acid secretion rate ([2]; Example 4, 100 μM on lumen side): 0.43 micro Eq/cm^2/h

SMILES: CC(C)[C@@H]1CC[C@@H](C)C[C@H]1O [l-Menthol]
- decrease in Isc ([1]; chromanol 293B administered in advance (Examples 2 and 3, FIG. 4 and 5)): did not decrease the Isc
- suppression of the gastric acid secretion rate ([2]; 50 μM): 57%
- Gastric acid secretion rate ([2]; Example 5, 50 μM on lumen side): 0.64 micro Eq/cm^2/h
